Test [1] has as its system influenza virus A/Udorn/72 H3N2 strain. Kind of test: influenza focus-forming assay in 293 cells. Type of test: cell-based. The following applies: for viral infection of 293 cells (decrease in foci, dose dependence): FIGS. 3A, 3B; for IC50: HEK293, 24 h, read-out: Flu IC50.
The test system of another test is DNV type 2 strain. In words: DNV focus-forming assay in Huh7 cells. To be noted: for IC50: Dengue virus, Huh-7, Huh7 cells, treatment after infection, 48 hours replication; for viral infection of Huh7 cells (decrease in foci, dose dependence): FIG. 4B. The format is cell-based, Dengue virus.
A further test has as its system hCMV AD169 strain. Kind of test: hCMV focus-forming assay in human foreskin fibroblasts. The format is cell-based, human cytomegalovirus. The following applies: FIGS. 5A, 5B.
In a further test the test system is Murine EMCV. In words: EMCV in vitro antiviral assay, Huh7 cell viability by MTS. Type of test: cell-based, encephalomyocarditis virus. To be noted: Huh7 cells; for Cell viability post-infection: 5 hours before EMCV, MTS 18 hours after infection. The method, then: In an encephalomyocarditis virus (EMCV) in vitro antiviral assay, Huh7 cells were grown under normal growth conditions and treated with the indicated amount of KIN101 in media containing 0.5% DMSO. The cells were grown in the presence of compound for 5 hours and then infected with 250 pfu Murine EMCV obtained from ATCC #VR-129B. Infected cells were grown for an additional 18 hours and then cell viability was measured using an MTS assay. Negative control cells were treated with buffer alone containing 0.5% DMSO. Interferon treatment was used as a positive control for virus inhibition and was added similar to compound treatments at a final concentration of 10 IU/mL Interferon-α: Intron A, from Schering-Plough. Cell viability was measured using an MTS assay, CellTiter 96® AQueous One Solution Cell Proliferation Assay (MTS), from Promega #G3580. […]

For another test, the system named is RSV A2 Long strain. Kind of test: RSV antiviral assay in HeLa cells. The format is cell-based, respiratory syncytial virus. The following applies: 48 hours post infection, FIG. 2B.
For test [2], the system named is interferon-stimulated gene (ISG) induction. Kind of test: preliminary screen of natural product library for ISG induction. The format is cell-based. The following applies: preliminary screen of NCI natural product library. From the text: The compounds disclosed herein are described as isoflavone compounds. Isoflavones are best known as natural products isolated from the Leguminosae (legume) family and are usually polyhydroxylated and pharmacologically active as phytoestrogenics and antioxidants. The most recognizable member of this class is genistein, which has been reported to have anticancer activities and to induce thymic and immune changes in mammals (Banerjee, S., et al. (2008) Multi-targeted therapy of cancer by genistein, Cancer Lett 269, 226-242).

As a reminder, the IC50 is the concentration that inhibits the measured activity by half. `CC(C)(C)COc1ccc(-c2coc3cc(OS(C)(=O)=O)ccc3c2=O)cc1` [KIN372]: in test [1], the “viral infection of 293 cells (decrease in foci, dose dependence)” value is on record as “dose-dependent decreases in viral infection” and the IC50 came to 37 nM. Moreover, in the test with DNV type 2 strain, the IC50 amounted to 1690 nM and the “viral infection of Huh7 cells (decrease in foci, dose dependence)” value is recorded as “dose-dependent decreases in viral infection”. In the test with hCMV AD169 strain, the “hCMV as measured by foci (FFU/mL), dose dependence” value (“hCMV as measured by foci (FFU/mL)” below) is on record as “dose-dependent decreases in hCMV”.

Turning to `C#CCOc1ccc2c(=O)c(-c3ccc(C(C)(C)C)cc3)coc2c1` [KIN328], in test [1], the “viral infection of 293 cells (decrease in foci, dose dependence)” value was “dose-dependent decreases in viral infection” and the IC50 is 286 nM. In the test on DNV type 2 strain, the IC50 is 1340 nM and the “viral infection of Huh7 cells (decrease in foci, dose dependence)” value is listed as “dose-dependent decreases in viral infection”. Moreover, the “hCMV as measured by foci (FFU/mL)” value with hCMV AD169 strain was “dose-dependent decreases in hCMV”.

Consider `CS(=O)(=O)Oc1ccc2c(=O)c(-c3ccc(Br)cc3)coc2c1` [KIN101], for which, in test [1], the “viral infection of 293 cells (decrease in foci, dose dependence)” value was “dose-dependent decreases in viral infection”. For the same compound, the values for the concentration for half-maximal inhibition (IC50) (in test [1]; in the test on DNV type 2 strain) were 2000 nM and > 5000 nM, respectively. For the same compound, the “viral infection of Huh7 cells (decrease in foci, dose dependence)” value in the test on DNV type 2 strain is listed as “dose-dependent decreases in viral infection”. Moreover, the “viral protein in cells infected with DNV” value in the test with DNV type 2 strain (increasing amounts of compound, FIG. 4A) was “dose-dependent decrease in viral protein”. Besides, the figures for the Cell viability post-infection in the test with Murine EMCV (5 units added), in the test with Murine EMCV (10 units added) and in the test with Murine EMCV (20 units added) were ~0.7, ~1.2 and ~1.45, respectively. Also, in the test with Murine EMCV, the “cell viability following infection with EMCV (in words)” value is “protective of cell viability”. In addition, the “RSV viral RNA” value in the test on RSV A2 Long strain is given as “decreased RSV viral RNA”.

Turning to `CC(C)(C)c1ccc(-c2coc3cc(OCCN4CCN(S(C)(=O)=O)CC4)ccc3c2=O)cc1` [KIN395], the “viral infection of 293 cells (decrease in foci, dose dependence)” value in test [1] is given as “dose-dependent decreases in viral infection”. The concentration for half-maximal inhibition (IC50) in test [1] was determined as 57 nM; with DNV type 2 strain, 1970 nM. For the same compound, the “hCMV as measured by foci (FFU/mL)” value in the test with hCMV AD169 strain is on record as “dose-dependent decreases in hCMV”.

With `CS(=O)(=O)Oc1ccc2c(=O)c(-c3ccc(OC(F)(F)F)cc3)coc2c1` [KIN134], the “antiviral activity compared with KIN101 (viral titer)” value in test [1] (FIG. 3A) is reported as “improved on this antiviral activity”. Moreover, the results for the IC50 (in test [1]; in the test with DNV type 2 strain) were 450 nM and 3970 nM, respectively. In addition, the “viral infection of Huh7 cells (decrease in foci, dose dependence)” value with DNV type 2 strain is recorded as “dose-dependent decreases in viral infection”. In the test with hCMV AD169 strain, the “hCMV as measured by foci (FFU/mL)” value is “dose-dependent decreases in hCMV”.

For the compound `CC(C)(C)c1ccc(-c2coc3cc(OCCN4CCOCC4)ccc3c2=O)cc1` [KIN392], in test [1], the “viral infection of 293 cells (decrease in foci, dose dependence)” value is “dose-dependent decreases in viral infection” and the IC50 turned out to be 9 nM. 650 nM corresponded to half-maximal inhibition with DNV type 2 strain (IC50). Moreover, the “hCMV as measured by foci (FFU/mL)” value with hCMV AD169 strain is given as “dose-dependent decreases in hCMV”.

With `CC(=O)N1CCN(CCOc2ccc3c(=O)c(-c4ccc(C(C)(C)C)cc4)coc3c2)CC1` [KIN394], the “viral infection of 293 cells (decrease in foci, dose dependence)” value in test [1] is on record as “dose-dependent decreases in viral infection”. The concentration for half-maximal inhibition (IC50) in test [1] was found to be 70 nM; in the test on DNV type 2 strain, 940 nM. Besides, in the test on hCMV AD169 strain, the “hCMV as measured by foci (FFU/mL)” value is on record as “dose-dependent decreases in hCMV”.

For the compound `CN(c1ccc2c(=O)c(-c3ccc(C(C)(C)C)cc3)coc2c1)S(C)(=O)=O` [KIN385], in test [1], the “viral infection of 293 cells (decrease in foci, dose dependence)” value is on record as “dose-dependent decreases in viral infection” and the IC50 came to 9 nM. Also, in the test on DNV type 2 strain, half-maximal inhibition (IC50) was put at 293 nM and the “viral infection of Huh7 cells (decrease in foci, dose dependence)” value was “dose-dependent decreases in viral infection”. For the same compound, the “hCMV as measured by foci (FFU/mL)” value in the test with hCMV AD169 strain is “dose-dependent decreases in hCMV”.

As to `CN(c1ccc2c(=O)c(-c3ccc(OCC4CC4)cc3)coc2c1)S(C)(=O)=O` [KIN865], the IC50 was determined as 234 nM in test [1] and 176 nM in the test with DNV type 2 strain.

As to `CN1CCN(CCOc2ccc3c(=O)c(-c4ccc(C(C)(C)C)cc4)coc3c2)CC1` [KIN807], the IC50 was 143 nM in test [1] and 130 nM in the test on DNV type 2 strain.

Turning to `CS(=O)(=O)Oc1ccc2c(=O)c(-c3ccc(OCC4CCOCC4)cc3)coc2c1` [KIN389], the half-inhibitory concentration (IC50) in test [1] is 200 nM; with DNV type 2 strain, > 5000 nM.

`CS(=O)(=O)N1CCN(CCOc2ccc3c(=O)c(-c4ccc(OC(F)(F)F)cc4)coc3c2)CC1` [KIN826]: the values for the IC50 (in test [1]; in the test with DNV type 2 strain) were 14 nM and 196 nM, respectively.

Take `O=c1c(-c2ccc(O)cc2)coc2cc(O)cc(O)c12` [genistein]: the “interferon-stimulated gene (ISG) induction, screen outcome” value in test [2] is on record as “validated hit”.

On to `CN(c1ccc2c(=O)c(-c3ccc(OCCC(C)(C)C)cc3)coc2c1)S(C)(=O)=O` [KIN882], for which the IC50 was 30 nM in test [1] and 216 nM in the test with DNV type 2 strain.

Turning to `CNCCOc1ccc2c(=O)c(-c3ccc(C(C)(C)C)cc3)coc2c1` [KIN861], the IC50 is 405 nM in test [1] and > 5000 nM in the test on DNV type 2 strain.

In the case of `CS(=O)(=O)Oc1ccc2c(=O)c(-c3ccc(OCC(F)(F)F)cc3)coc2c1` [KIN376], in test [1], the “viral infection of 293 cells (decrease in foci, dose dependence)” value is listed as “dose-dependent decreases in viral infection” and the IC50 stood at 103 nM. In the test on DNV type 2 strain, the IC50 was 5000 nM and the “viral infection of Huh7 cells (decrease in foci, dose dependence)” value is reported as “dose-dependent decreases in viral infection”. Moreover, the “hCMV as measured by foci (FFU/mL)” value in the test on hCMV AD169 strain is on record as “dose-dependent decreases in hCMV”.

For `CS(=O)(=O)N1CCN(CCOc2ccc3c(=O)c(-c4ccc(Br)cc4)coc3c2)CC1` [KIN848], the figures for the IC50 (in test [1]; with DNV type 2 strain) were 4 nM and 258 nM, respectively.

For the origin of these results see patent publication US20160122312A1, “ANTI-VIRAL COMPOUNDS, PHARMACEUTICAL COMPOSITIONS AND METHODS OF USE THEREOF” (KINETA, INC., priority 2013, published 2016).
